In patent US20100098633A1, “SELECTIVE SEPRASE INHIBITORS” (Molecular Insight Pharmaceuticals, Inc., priority 2008, published 2010):
Blank lines part the entries; values can stand above or below the compound they belong to.

Target: T1, recombinant human seprase (rhFAP) (Homo sapiens, UniProt Q12884)
T1 sequence (Q12884 26-760 limits assumed): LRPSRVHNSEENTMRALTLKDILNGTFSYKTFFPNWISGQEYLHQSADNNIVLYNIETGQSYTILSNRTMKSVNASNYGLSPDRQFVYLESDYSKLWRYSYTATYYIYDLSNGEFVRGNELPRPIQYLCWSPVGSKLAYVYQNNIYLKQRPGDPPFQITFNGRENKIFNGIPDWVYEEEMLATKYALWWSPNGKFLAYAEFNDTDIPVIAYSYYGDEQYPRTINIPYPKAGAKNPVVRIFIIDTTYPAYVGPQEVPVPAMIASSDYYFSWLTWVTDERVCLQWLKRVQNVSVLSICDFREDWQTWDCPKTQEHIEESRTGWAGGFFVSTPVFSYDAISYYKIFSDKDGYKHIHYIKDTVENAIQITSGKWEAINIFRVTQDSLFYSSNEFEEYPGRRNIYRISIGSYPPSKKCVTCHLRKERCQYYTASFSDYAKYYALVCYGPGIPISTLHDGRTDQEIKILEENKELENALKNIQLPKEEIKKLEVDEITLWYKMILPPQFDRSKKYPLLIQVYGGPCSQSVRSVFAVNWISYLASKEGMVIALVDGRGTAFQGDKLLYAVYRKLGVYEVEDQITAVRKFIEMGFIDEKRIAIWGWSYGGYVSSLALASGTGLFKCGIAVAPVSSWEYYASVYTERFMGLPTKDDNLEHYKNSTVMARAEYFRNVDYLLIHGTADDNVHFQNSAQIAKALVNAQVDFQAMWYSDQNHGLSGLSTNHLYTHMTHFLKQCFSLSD
Assay: Inhibition of enzymatic activity of recombinant human seprase on Z-Gly-Pro-AMC (fluorescence)
Assay type: biochemical
Conditions: for IC50: in vitro data against seprase, read-out: FAP (IC50 nM); for remaining activity at 0.005 µM / remaining activity at 0.05 µM / remaining activity at 0.5 µM / remaining activity at 5 µM / remaining activity at 500 µM / Percent of Control: initial velocity normalized to control without test compound, 50 μM Z-Gly-Pro-AMC; for remaining activity at 0.005 µM / remaining activity at 0.05 µM / remaining activity at 0.5 µM / remaining activity at 5 µM / remaining activity at 500 µM: read-out: Percent of Control
Description: In vitro assaying of compounds for inhibition of dipeptidyl peptidase activity of seprase and DPP-IV can be achieved following the described in Edosada C. Y. et al. J. Biolog. Chem. 2006, 281, 7437-7444.
Selected test compounds were examined for their ability to inhibit the enzymatic activity of recombinant human seprase (rhFAP) on the substrate, benzyloxycarbonyl-Gly-Pro-7-amido-4-methylcoumarin (Z-Gly-Pro-AMC). In brief, 10 μg rhFAP was added to 50 μM Z-Gly-Pro-AMC in the presence of increasing concentrations of test compound, and enzymatic activity was determined by monitoring fluorescence (Ex. 355 nm/Em. 460 nm). Compound 1051 is the known inhibitor, Cbz-Gly-boroproline. Initial velocity of the reaction was calculated and normalized to control reactions conducted in the absence of test compound.
The inhibition was measured by the half maximal inhibitory concentration (IC50) of a compound of interest. The IC50 indicates how much of a particular compound is needed to inhibit seprase by half.

IC50: 785 nM
Compound: N#C[C@@H]1CCCN1C(=O)CNC(=O)c1cc(I)ccc1Cl [Compound 1042, (S)-2-chloro-N-(2-(2-cyanopyrrolidin-1-yl)-2-oxoethyl)-5-iodobenzamide]

IC50: 7 nM
remaining activity at 0.005 µM (inhibitor 0.005 μM): 42%
remaining activity at 0.05 µM (inhibitor 0.05 μM): 0%
remaining activity at 0.5 µM (inhibitor 0.5 μM): 0%
remaining activity at 5 µM (inhibitor 5 μM): 0%
remaining activity at 500 µM (inhibitor 500 μM): 0%
Compound: O=C(NCC(=O)N1CCCC1B(O)O)c1ccccc1I (stereo not drawn) [Compound 1023, 1-(2-(2-iodobenzamido)acetyl)pyrrolidin-2-ylboronic acid]

IC50: 21 nM
Compound: Re(CO)3[1-(2-(6-(bis(pyridin-2-ylmethyl)amino)hexanamido) acetyl)pyrrolidin-2-ylboronic acid] [Compound 1014]

IC50: 3 nM
Compound: O=C(NCC(=O)N1CCCC1B(O)O)c1ccc(I)cc1Cl (stereo not drawn) [Compound 1026, 1-(2-(2-chloro-4-iodobenzamido)acetyl)pyrrolidin-2-ylboronic acid]

IC50: 115 nM
Compound: N#C[C@@H]1CCCN1C(=O)CNC(=O)c1ccccc1I [Compound 1043, (S)—N-(2-(2-cyanopyrrolidin-1-yl)-2-oxoethyl)-2-iodobenzamide]

IC50: 8 nM
Compound: O=C(NCC(=O)N1CCCC1B(O)O)c1cc(I)ccc1F (stereo not drawn) [Compound 1029, 1-(2-(2-fluoro-5-iodobenzamido)acetyl)pyrrolidin-2-ylboronic acid]

IC50: 5 nM
Compound: O=C(NCC(=O)N1CCCC1B(O)O)c1cc(I)ccc1Br (stereo not drawn) [Compound 1028, 1-(2-(2-bromo-5-iodobenzamido)acetyl)pyrrolidin-2-ylboronic acid]

IC50 values against seprase (in words): low nanomolar range
IC50: 2 nM
Compound: O=C(NCC(=O)N1CCCC1B(O)O)c1ccc2cc(I)ccc2c1 (stereo not drawn) [Compound 1030, 1-(2-(6-iodo-2-naphthamido)acetyl)pyrrolidin-2-ylboronic acid]

IC50: 970 nM
Compound: N#C[C@H]1CCCN1C(=O)CNC(=O)c1cccc(I)c1 [Compound 1046, (R)-N-(2-(2-cyanopyrrolidin-1-yl)-2-oxoethyl)-3-iodobenzamide]

IC50: 11 nM
Compound: O=C(NCC(=O)N1CCCC1B(O)O)Nc1ccc(I)cc1 (stereo not drawn) [Compound 1034, 1-(2-(3-(4-iodophenyl)ureido)acetyl)pyrrolidin-2-ylboronic acid]

IC50: 692 nM
Compound: N#C[C@@H]1CCCN1C(=O)CNC(=O)c1ccc(I)cc1Cl [Compound 1041, (S)-2-chloro-N-(2-(2-cyanopyrrolidin-1-yl)-2-oxoethyl)-4-iodobenzamide]

Compound: Re(CO)3-(S)-2,2′-(2,2′-(6-(2-(2-cyanopyrrolidin-1-yl)-2-oxoethylamino)-6-oxohexylazanediyl)bis(methylene)bis(1H-imidazole-2,1-diyl))diacetic acid [Compound 1022]
IC50: 236 nM

IC50: 2540 nM
Percent of Control (inhibitor 0.005 μM): 90%
Percent of Control (inhibitor 0.05 μM): 95%
Percent of Control (inhibitor 0.5 μM): 82%
Percent of Control (inhibitor 5 μM): 26%
Percent of Control (inhibitor 50 μM): 0%
Percent of Control (inhibitor 500 μM): 0%
Compound: Re(CO)3[1-(6-(bis(pyridin-2-ylmethyl)amino)hexanoyl)pyrrolidin-2-ylboronic acid] [Compound 1010]

IC50: 23700 nM
Compound: N#Cc1ccc(I)cc1C(=O)NCC(=O)N1CCC[C@H]1C#N [Compound 1044, (S)-2-cyano-N-(2-(2-cyanopyrrolidin-1-yl)-2-oxoethyl)-5-iodobenzamide]

IC50: 2 nM
remaining activity at 0.005 µM (inhibitor 0.005 μM): 0%
remaining activity at 0.05 µM (inhibitor 0.05 μM): 0%
remaining activity at 0.5 µM (inhibitor 0.5 μM): 0%
remaining activity at 5 µM (inhibitor 5 μM): 0%
remaining activity at 500 µM (inhibitor 500 μM): 0%
Compound: O=C(NCC(=O)N1CCCC1B(O)O)c1cccc(I)c1 (stereo not drawn) [Compound 1025, 1-(2-(3-iodobenzamido)acetyl)pyrrolidin-2-ylboronic acid]

IC50: 11 nM
Compound: Cc1ccc(I)cc1C(=O)NCC(=O)N1CCCC1B(O)O (stereo not drawn) [Compound 1032, 1-(2-(5-iodo-2-methylbenzamido)acetyl)pyrrolidin-2-ylboronic acid]
